{"source": "patent US10300059B2", "about": "“Pharmaceutical composition and therapeutic combination comprising a cholesteryl ester transfer protein inhibitor and HMG CoA reductase inhibitors” (DEZIMA PHARMA B.V., priority 2014, dated 2019)", "key": {"[1]": {"conditions": "in vivo; cited from earlier work"}, "[2]": {"system": "patients with mild dyslipidemia", "test": "Double-blind, placebo-controlled phase 2 trial: fasted lipid profile after 12 weeks", "format": "in vivo, human", "method": "In a double-blind, placebo controlled clinical study the effects of 12 weeks of administration of Compound A alone and in combination with statins in patients with mild dyslipidemia was examined. […] Patients were recruited at 20 sites in the Netherlands and Denmark. The trial was approved by Independent Ethics Committees, and each patient provided written informed consent. The trial was conducted in accordance with the principles of the Declaration of Helsinki and Good Clinical Practice Guidelines and the protocol was registered on ClinicalTrials.gov (NCT01970215). The trial consisted of a screening visit, followed by a run-in phase of 4 weeks (or 6 weeks for patients that required a washout of existing lipid-lowering therapy). […] All treatments were to be taken once daily with food for 12 weeks. […] Follow-up visits were conducted 2 and 8 weeks after the end of treatment. Safety was assessed throughout the trial by monitoring adverse events and concomitant medication use, 12-lead electrocardiograms (ECGs), vital signs, laboratory safety assessments and physical examinations. Additional assessments included salivary cortisol, plasma aldosterone, high-sensitivity C-reactive protein (hsCRP) and endothelin 1. Efficacy assessments included fasted lipid profiles including total cholesterol (TC), HDL-C, LDL-C, triglycerides, apolipoproteins AI, B and E (ApoAI, Apo B and ApoE), lipoprotein a (Lp[a]) and derived parameters. […] Blood samples were collected for pharmacokinetic analysis of Compound A. Total cholesterol and triglycerides were measured by homogenous enzymatic assay using a Modular analyser (cholesterol oxidase peroxidase-peroxidase aminophenazone phenol [CHOP-PAP]) method and a glycerol phosphate oxidase [GPO-PAP] method, respectively. […] Lp(a) was measured by immunoturbidimetry using reagents and standards from Wako Chemicals (Germany). LDL particle size was determined by gradient gel electrophoresis. HDL fraction was separated by a combined ultracentrifugation-precipitation method ((β-quantification). HDL-2 and HDL-3 fractions were then separated by further ultracentrifugation. […] The measurements were performed on an Olympus AU600 automatic analyzer and were calibrated using secondary standards from Roche Diagnostics (total-cholesterol, triglycerides) and Diasys Diagnostics (free cholesterol, phospholipids), respectively. Esterified cholesterol was calculated as the difference between total-cholesterol and free cholesterol. […] The primary and secondary efficacy analyses were performed using an analysis of covariance (ANCOVA) model with treatment and use of statin therapy at randomisation as factors and the baseline value for the respective efficacy variable as a covariate. Least-squares means, standard errors and 2-tailed 95% confidence intervals for each treatment group and for pairwise comparisons between Compound A doses and placebo, between Compound A plus atorvastatin and atorvastatin alone, and between Compound A plus rosuvastatin and rosuvastatin alone were provided. As there were two co-primary efficacy variables, a closed testing procedure was used in order to control the family-wise error. No interim analyses were planned or conducted."}, "[3]": {"system": "patients with mild dyslipidemia", "test": "Serum-driven cholesterol efflux, baseline versus week 12 of the phase 2 trial", "format": "in vivo, human", "conditions": "p<0.0001", "text": "Bars are means and error bars are standard deviations. The baseline data only includes patients who had both baseline and week 12 data.\nIn this Figure baseline and week 12 data for serum-driven cholesterol efflux is shown. Bars are means and error bars are standard deviations. The baseline data only includes patients who had both baseline and week 12 data."}, "[4]": {"system": "fasted healthy subjects", "conditions": "200 mg once daily; cited from earlier work"}, "[5]": {"conditions": "in humans; accumulates in fat tissue; cited from earlier work"}, "[6]": {"conditions": "data from phase 2 studies; cited from earlier work"}, "[7]": {"system": "patients", "conditions": "150 mg once daily; cited from earlier work"}, "[8]": {"system": "endothelin-1", "conditions": "animal studies; cited from earlier work"}, "[9]": {"conditions": "cited from earlier work"}, "[10]": {"system": "patients", "conditions": "500 mg once daily monotherapy in patients; cited from earlier work"}, "[11]": {"conditions": "rosuvastatin (10 mg) once daily"}, "[12]": {"conditions": "2.5 mg of Compound A once daily"}, "[13]": {"conditions": "atorvastatin (20 mg) once daily"}}, "note": "Like-named read-outs stand apart in the source and are kept apart here.", "data": [{"compound": "CCC(CC)CC1(C(=O)Nc2ccccc2SC(=O)C(C)C)CCCCC1", "note": "[Dalcetrapib, dalcetrapib]", "values": [{"measurement": "effects on LDL-C concentrations", "setting": "[1]", "value": "minimal effects"}, {"measurement": "increase of HDL-C", "setting": "[1]", "value": "30-40%"}]}, {"compound": "CC(C)c1nc(N(C)S(C)(=O)=O)nc(-c2ccc(F)cc2)c1/C=C/[C@@H](O)C[C@@H](O)CC(=O)O", "note": "[Rosuvastatin, rosuvastatin]", "values": [{"measurement": "HDL-C, percentage change at Week 12 compared to baseline", "setting": "[2]; [11]", "value": 6.16}, {"measurement": "LDL-C, percentage change at Week 12 compared to baseline", "setting": "[2]; [11]", "value": "−47.36"}, {"measurement": "Lp(a), percentage change at Week 12 compared to baseline", "setting": "[2]; [11]", "value": "−7.79"}]}, {"compound": "CCOC(=O)N1c2ccc(C(F)(F)F)cc2[C@@H](N(Cc2cc(C(F)(F)F)cc(C(F)(F)F)c2)c2ncc(OCCCC(=O)O)cn2)C[C@H]1CC", "note": "[Compound A, {4-[(2-{[3,5-bis(trifluoromethyl)benzyl][(2R,4S)-1-(ethoxycarbonyl)-2-ethyl-6-(trifluoromethyl)-1,2,3,4-tetrahydroquinolin-4-yl]amino}pyrimidin-5-yl)oxy]butanoic acid}]", "values": [{"measurement": "increase in the ability of serum to promote cholesterol efflux", "setting": "[3]; 1 mg of Compound A", "value": 16.9, "unit": "%"}, {"measurement": "increase in serum-mediated cholesterol efflux", "setting": "[3]; 10 mg dose of Compound A", "value": 36.7, "unit": "%"}, {"measurement": "HDL-C, percentage change at Week 12 compared to baseline", "setting": "[2]; 1 mg of Compound A once daily", "value": 76.04}, {"measurement": "LDL-C, percentage change at Week 12 compared to baseline", "setting": "[2]; 1 mg of Compound A once daily", "value": "−27.05"}, {"measurement": "Lp(a), percentage change at Week 12 compared to baseline", "setting": "[2]; 1 mg of Compound A once daily", "value": "−28.81"}, {"measurement": "HDL-C, percentage change at Week 12 compared to baseline", "setting": "[2]; [12]", "value": 122.28}, {"measurement": "LDL-C, percentage change at Week 12 compared to baseline", "setting": "[2]; [12]", "value": "−34.38"}, {"measurement": "Lp(a), percentage change at Week 12 compared to baseline", "setting": "[2]; [12]", "value": "−26.69"}, {"measurement": "HDL-C, percentage change at Week 12 compared to baseline", "setting": "[2]; 5 mg of Compound A once daily", "value": 160.90}, {"measurement": "LDL-C, percentage change at Week 12 compared to baseline", "setting": "[2]; 5 mg of Compound A once daily", "value": "−47.49"}, {"measurement": "Lp(a), percentage change at Week 12 compared to baseline", "setting": "[2]; 5 mg of Compound A once daily", "value": "−37.33"}, {"measurement": "HDL-C, percentage change at Week 12 compared to baseline", "setting": "[2]; 10 mg of Compound A once daily", "value": 180.64}, {"measurement": "LDL-C, percentage change at Week 12 compared to baseline", "setting": "[2]; 10 mg of Compound A once daily", "value": "−47.26"}, {"measurement": "Lp(a), percentage change at Week 12 compared to baseline", "setting": "[2]; 10 mg of Compound A once daily", "value": "−34.86"}]}, {"compound": "COc1cc(F)c(C(C)C)cc1-c1ccc(C(F)(F)F)cc1CN1C(=O)O[C@H](c2cc(C(F)(F)F)cc(C(F)(F)F)c2)[C@@H]1C", "note": "[Anacetrapib, anacetrapib]", "values": [{"measurement": "decrease of LDL-C", "setting": "[4]", "value": 36, "unit": "%"}, {"measurement": "increase of HDL C", "setting": "[4]", "value": 97, "unit": "%"}, {"measurement": "half life", "setting": "[5]", "value": "2-4 years"}, {"measurement": "mineralocorticoid activity", "setting": "[6]", "value": "without mineralocorticoid activity"}, {"measurement": "decrease of LDL-C", "setting": "[7]", "value": 40, "unit": "%"}, {"measurement": "increase of HDL C", "setting": "[7]", "value": 139, "unit": "%"}]}, {"compound": "CCOC(=O)N1c2ccc(C(F)(F)F)cc2[C@@H](N(Cc2cc(C(F)(F)F)cc(C(F)(F)F)c2)C(=O)OC)C[C@H]1CC", "note": "[Torcetrapib, torcetrapib]", "values": [{"measurement": "expression of endothelin-1", "setting": "[8]", "value": "increases expression of endothelin-1"}, {"measurement": "off-target effects", "setting": "[9]; consistent with mineralocorticoid activity", "value": "increased blood pressure, changes in electrolytes (increases in sodium and bicarbonate and decreases in potassium) and increases in aldosterone"}, {"measurement": "decrease of LDL-C", "setting": "[9]; dosed at 60 mg", "value": 25, "unit": "%"}, {"measurement": "increase of HDL-C", "setting": "[9]; dosed at 60 mg", "value": 72, "unit": "%"}, {"measurement": "safety concerns", "setting": "[9]; in combination with the HMG CoA reductase inhibitor atorvastatin", "value": "unexpected increase in cardiovascular events and death"}]}, {"compound": "Cc1cc(C)c2c(c1)[C@@H](N(Cc1cc(C(F)(F)F)cc(C(F)(F)F)c1)c1nnn(C)n1)CCCN2C[C@H]1CC[C@H](C(=O)O)CC1", "note": "[Evacetrapib, evacetrapib]", "values": [{"measurement": "decrease of LDL-C", "setting": "[10]", "value": 36, "unit": "%"}, {"measurement": "increase of HDL-C", "setting": "[10]", "value": 129, "unit": "%"}, {"measurement": "mineralocorticoid activity", "setting": "[6]", "value": "without mineralocorticoid activity"}]}, {"compound": "CC(C)c1c(C(=O)Nc2ccccc2)c(-c2ccccc2)c(-c2ccc(F)cc2)n1CC[C@@H](O)C[C@@H](O)CC(=O)O", "note": "[Atorvastatin, atorvastatin]", "values": [{"measurement": "HDL-C, percentage change at Week 12 compared to baseline", "setting": "[2]; [13]", "value": 1.27}, {"measurement": "LDL-C, percentage change at Week 12 compared to baseline", "setting": "[2]; [13]", "value": "−46.73"}, {"measurement": "Lp(a), percentage change at Week 12 compared to baseline", "setting": "[2]; [13]", "value": "−4.46"}]}]}
